Like-named read-outs stand apart in the source and are kept apart here. Bounds are passed on as bounds.

The target of this assay is JAK3 enzyme (Homo sapiens (Human), UniProt P52333). The experiment in a line: JAK Caliper Enzyme Assay at 4 μM or 1 mM ATP. In kind it is biochemical.
Where [1] appears, read: read-out: JAK3 (4 μM ATP) IC50, 4 μM ATP.
Where [2] appears, read: read-out: JAK3 (1 mM ATP) IC50, 1 mM ATP.

Chain of JAK3 enzyme (P52333 whole entry, species assumed): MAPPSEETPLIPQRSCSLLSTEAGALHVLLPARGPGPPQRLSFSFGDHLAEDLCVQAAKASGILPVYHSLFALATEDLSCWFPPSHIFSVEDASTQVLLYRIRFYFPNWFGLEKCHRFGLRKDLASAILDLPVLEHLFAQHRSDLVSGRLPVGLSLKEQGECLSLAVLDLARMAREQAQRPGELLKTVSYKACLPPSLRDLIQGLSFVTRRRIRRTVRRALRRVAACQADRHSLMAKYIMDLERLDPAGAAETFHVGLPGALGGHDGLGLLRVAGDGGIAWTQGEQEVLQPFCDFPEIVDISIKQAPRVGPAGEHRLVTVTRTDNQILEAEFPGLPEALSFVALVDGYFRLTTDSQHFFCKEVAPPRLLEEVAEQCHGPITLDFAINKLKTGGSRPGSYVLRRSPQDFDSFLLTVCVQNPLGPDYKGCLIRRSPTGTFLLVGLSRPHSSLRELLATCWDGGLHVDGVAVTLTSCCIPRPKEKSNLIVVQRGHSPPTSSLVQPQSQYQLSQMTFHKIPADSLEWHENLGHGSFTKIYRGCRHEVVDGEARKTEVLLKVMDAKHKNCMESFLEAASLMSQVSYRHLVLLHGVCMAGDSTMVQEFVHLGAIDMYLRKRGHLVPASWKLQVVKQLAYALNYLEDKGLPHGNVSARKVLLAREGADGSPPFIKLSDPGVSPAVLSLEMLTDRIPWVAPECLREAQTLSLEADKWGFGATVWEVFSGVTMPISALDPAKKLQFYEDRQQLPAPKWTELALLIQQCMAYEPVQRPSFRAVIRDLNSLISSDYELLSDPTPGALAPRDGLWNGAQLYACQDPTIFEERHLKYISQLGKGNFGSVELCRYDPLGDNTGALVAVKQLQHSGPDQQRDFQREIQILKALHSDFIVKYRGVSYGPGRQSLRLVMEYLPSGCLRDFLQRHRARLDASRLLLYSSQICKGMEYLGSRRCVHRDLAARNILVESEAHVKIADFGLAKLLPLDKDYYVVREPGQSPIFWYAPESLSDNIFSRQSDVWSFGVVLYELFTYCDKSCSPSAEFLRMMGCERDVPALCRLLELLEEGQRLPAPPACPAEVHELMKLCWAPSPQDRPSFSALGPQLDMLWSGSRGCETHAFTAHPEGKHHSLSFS

`C=CC(=O)N1CCC(Nc2cnc3[nH]cc(C(=O)N[C@H](C)CCC)c3n2)CC1` [Example 274, 2-[(1-acryloylpiperidin-4-yl)amino]-N-[(2R)-pentan-2-yl]-5H-pyrrolo[2,3-b]pyrazine-7-carboxamide]: the concentration for half-maximal inhibition (IC50) (commonly the midpoint of a concentration-inhibition curve) reads like this: under setting [1], 0.2 nM; under setting [2], 8.2 nM.

Take `C=CC(=O)N1CCC(Nc2cnc3[nH]cc(C(=O)NCCOC)c3n2)CC1` [Example 275, 2-[(1-acryloylpiperidin-4-yl)amino]-N-(2-methoxyethyl)-5H-pyrrolo[2,3-b]pyrazine-7-carboxamide]: the IC50 by setting is: under setting [1], 0.4 nM; under setting [2], 13.1 nM.

Regarding `C=CC(=O)N1CCC(Nc2cnc3[nH]cc(C(=O)NC(C)(C)CC)c3n2)CC1` [Example 276, 2-[(1-acryloylpiperidin-4-yl)amino]-N-(2-methylbutan-2-yl)-5H-pyrrolo[2,3-b]pyrazine-7-carboxamide], the IC50 reads like this: under setting [1], under 0.3 nM; under setting [2], 11.1 nM.

Regarding `C=CC(=O)N1CCC(Nc2cnc3[nH]cc(C(=O)N[C@@H](C)COC)c3n2)CC1` [Example 277, 2-[(1-acryloylpiperidin-4-yl)amino]-N-[(2S)-1-methoxypropan-2-yl]-5H-pyrrolo[2,3-b]pyrazine-7-carboxamide], the IC50 is, setting by setting: under setting [1], 0.3 nM; under setting [2], 6.6 nM.

For `C=CC(=O)N1CCC(Nc2cnc3[nH]cc(C(=O)NC4CCCCC4)c3n2)CC1` [Example 278, 2-[(1-acryloylpiperidin-4-yl)amino]-N-cyclohexyl-5H-pyrrolo[2,3-b]pyrazine-7-carboxamide], the IC50 was determined as 0.2 nM under setting [1] and 6.3 nM under setting [2].

With `C=CC(=O)N1CCC(Nc2cnc3[nH]cc(C(=O)N(C)C(C)C)c3n2)CC1` [Example 279, 2-[(1-acryloylpiperidin-4-yl)amino]-N-methyl-N-(propan-2-yl)-5H-pyrrolo[2,3-b]pyrazine-7-carboxamide], the IC50 under setting [1] came to 9.7 nM and the IC50 under setting [2] worked out at 592 nM.

In the case of `C=CC(=O)N1CCC(Nc2cnc3[nH]cc(C(=O)NC4CCC4)c3n2)CC1` [Example 280, 2-[(1-acryloylpiperidin-4-yl)amino]-N-cyclobutyl-5H-pyrrolo[2,3-b]pyrazine-7-carboxamide], the half-inhibitory concentration (IC50) under setting [1] was determined as 0.2 nM and the IC50 under setting [2] worked out at 4 nM.

With `C=CC(=O)N1CCC(Nc2cnc3[nH]cc(C(=O)NC45CC(C4)C5)c3n2)CC1` [Example 281, 2-[(1-acryloylpiperidin-4-yl)amino]-N-(bicyclo[1.1.1]pent-1-yl)-5H-pyrrolo[2,3-b]pyrazine-7-carboxamide], the IC50 by setting is: under setting [1], 0.4 nM; under setting [2], 5.2 nM.

Take `C=CC(=O)N1CCC(Nc2cnc3[nH]cc(C(=O)NCC(C)(F)F)c3n2)CC1` [Example 282, 2-[(1-acryloylpiperidin-4-yl)amino]-N-(2,2-difluoropropyl)-5H-pyrrolo[2,3-b]pyrazine-7-carboxamide]: the half-maximal inhibitory concentration (IC50) stood at 0.2 nM under setting [1] and 12.9 nM under setting [2].

Consider `C=CC(=O)N1CCC(Nc2cnc3[nH]cc(C(=O)NC4CCCC4)c3n2)CC1` [Example 283, 2-[(1-acryloylpiperidin-4-yl)amino]-N-cyclopentyl-5H-pyrrolo[2,3-b]pyrazine-7-carboxamide], for which the 50% inhibitory concentration (IC50) was 0.3 nM under setting [1] and 7.6 nM under setting [2].

Take `C=CC(=O)N1CCC(Nc2cnc3[nH]cc(C(=O)N4CCC4)c3n2)CC1` [Example 284, 1-(4-{[7-(azetidin-1-ylcarbonyl)-5H-pyrrolo[2,3-b]pyrazin-2-yl]amino}piperidin-1-yl)prop-2-en-1-one]: the half-inhibitory concentration (IC50) under setting [1] was found to be 1.9 nM and the IC50 under setting [2] is 176 nM.

Consider `C=CC(=O)N1CCC(Nc2cnc3[nH]cc(C(=O)N[C@@H](C)CC)c3n2)CC1` [Example 285, 2-[(1-acryloylpiperidin-4-yl)amino]-N-[(2S)-butan-2-yl]-5H-pyrrolo[2,3-b]pyrazine-7-carboxamide], for which the half-maximal inhibitory concentration (IC50) by setting is: under setting [1], 0.3 nM; under setting [2], 8.5 nM.

On to `C=CC(=O)N1CCC(Nc2cnc3[nH]cc(C(=O)N(C)C4CC4)c3n2)CC1` [Example 286, 2-[(1-acryloylpiperidin-4-yl)amino]-N-cyclopropyl-N-methyl-5H-pyrrolo[2,3-b]pyrazine-7-carboxamide], for which the IC50 is, setting by setting: under setting [1], 15.9 nM; under setting [2], 814 nM.

Regarding `C=CC(=O)N1CCC(Nc2cnc3[nH]cc(C(=O)N4CCCC4)c3n2)CC1` [Example 287, 1-(4-{[7-(pyrrolidin-1-ylcarbonyl)-5H-pyrrolo[2,3-b]pyrazin-2-yl]amino}piperidin-1-yl)prop-2-en-1-one], the 50% inhibitory concentration (IC50) is 4.2 nM under setting [1] and 346 nM under setting [2].

Take `C=CC(=O)N1CCC(Nc2cnc3[nH]cc(C(=O)NC(C)C4CC4)c3n2)CC1` (stereo not drawn) [Example 288, 2-[(1-acryloylpiperidin-4-yl)amino]-N-(1-cyclopropylethyl)-5H-pyrrolo[2,3-b]pyrazine-7-carboxamide]: the half-maximal inhibitory concentration (IC50) is 0.2 nM under setting [1] and 7.8 nM under setting [2].

Consider `C=CC(=O)N1CCC(Nc2cnc3[nH]cc(C(=O)N[C@H](C)CC)c3n2)CC1` [Example 289, 2-[(1-acryloylpiperidin-4-yl)amino]-N-[(2R)-butan-2-yl]-5H-pyrrolo[2,3-b]pyrazine-7-carboxamide], for which the half-inhibitory concentration (IC50) amounted to 0.3 nM under setting [1] and 7.1 nM under setting [2].

Regarding `C=CC(=O)N1CC[C@@H](Nc2cnc3[nH]cc(C(=O)NC(C)C)c3n2)[C@H](F)C1` [Example 291, 2-{[(3R,4R)-1-acryloyl-3-fluoropiperidin-4-yl]amino}-N-(propan-2-yl)-5H-pyrrolo[2,3-b]pyrazine-7-carboxamide], the concentration for half-maximal inhibition (IC50) under setting [1] was 0.2 nM and the concentration for half-maximal inhibition (IC50) under setting [2] was determined as 9.2 nM.

Regarding `C=CC(=O)N1CCN(c2cnc3[nH]cc(C(=O)NC(C)C)c3n2)CC1(C)C` [Example 293, 2-(4-acryloyl-3,3-dimethylpiperazin-1-yl)-N-(propan-2-yl)-5H-pyrrolo[2,3-b]pyrazine-7-carboxamide], the half-maximal inhibitory concentration (IC50) runs as follows: under setting [1], 0.6 nM; under setting [2], 107 nM.

In the case of `C=CC(=O)N1CCN(c2cnc3[nH]cc(C(=O)NC(C)C)c3n2)C[C@H]1C(C)C` [Example 294, 2-[(3R)-4-acryloyl-3-(propan-2-yl)piperazin-1-yl]-N-(propan-2-yl)-5H-pyrrolo[2,3-b]pyrazine-7-carboxamide], the IC50 runs as follows: under setting [1], 1.9 nM; under setting [2], 235 nM.

Turning to `C=CC(=O)N1CCN(c2cnc3[nH]cc(C(=O)NC(C)C)c3n2)C[C@@H]1C` [Example 295, 2-[(3S)-4-acryloyl-3-methylpiperazin-1-yl]-N-(propan-2-yl)-5H-pyrrolo[2,3-b]pyrazine-7-carboxamide], the IC50 was determined as 1.1 nM under setting [1] and 89.8 nM under setting [2].

For `C=CC(=O)N1CCN(c2cnc3[nH]cc(C(=O)NC(C)C)c3n2)[C@@H](C)C1` [Example 297, 2-[(2S)-4-acryloyl-2-methylpiperazin-1-yl]-N-(propan-2-yl)-5H-pyrrolo[2,3-b]pyrazine-7-carboxamide], the IC50 was 1.5 nM under setting [1] and 181 nM under setting [2].

With `C=CC(=O)N1CCN(c2cnc3[nH]cc(C(=O)NC(C)C)c3n2)C[C@@H]1CC` [Example 299, 2-[(3S)-4-acryloyl-3-ethylpiperazin-1-yl]-N-(propan-2-yl)-5H-pyrrolo[2,3-b]pyrazine-7-carboxamide], the IC50 by setting is: under setting [1], 0.7 nM; under setting [2], 55.6 nM.

On to `C=CC(=O)N1[C@@H]2CC[C@H]1CN(c1cnc3[nH]cc(C(=O)NC(C)C)c3n1)C2` [Example 301, 2-[(1R,5S)-8-acryloyl-3,8-diazabicyclo[3.2.1]oct-3-yl]-N-(propan-2-yl)-5H-pyrrolo[2,3-b]pyrazine-7-carboxamide], for which the 50% inhibitory concentration (IC50) is, setting by setting: under setting [1], 0.6 nM; under setting [2], 89 nM.

For `C=CC(=O)N1CC[C@@H](Nc2cnc3[nH]cc(C(=O)NC(C)C)c3n2)[C@@H](OC)C1` [Example 302, 2-{[(3S,4R)-1-acryloyl-3-methoxypiperidin-4-yl]amino}-N-(propan-2-yl)-5H-pyrrolo[2,3-b]pyrazine-7-carboxamide], the half-inhibitory concentration (IC50) is 1.2 nM under setting [1] and 49.4 nM under setting [2].

In the case of `C=CC(=O)N1CC[C@@H](Nc2cnc3[nH]cc(C(=O)NC(C)C)c3n2)[C@H](OC)C1` [Example 305, 2-{[(3R,4R)-1-acryloyl-3-methoxypiperidin-4-yl]amino}-N-(propan-2-yl)-5H-pyrrolo[2,3-b]pyrazine-7-carboxamide], the IC50 is, setting by setting: under setting [1], 0.8 nM; under setting [2], 65 nM.

For `C=CC(=O)N1[C@H](C)CN(c2cnc3[nH]cc(C(=O)NC(C)C)c3n2)C[C@@H]1C` [Example 306, 2-[(3R,5S)-4-acryloyl-3,5-dimethylpiperazin-1-yl]-N-(propan-2-yl)-5H-pyrrolo[2,3-b]pyrazine-7-carboxamide], the half-maximal inhibitory concentration (IC50) under setting [1] turned out to be 3.9 nM and the IC50 under setting [2] was 326 nM.

Regarding `C=CC(=O)N1CCN(c2cnc3[nH]cc(C(=O)NC(C)C)c3n2)[C@H](C)C1` [Example 307, 2-[(2R)-4-acryloyl-2-methylpiperazin-1-yl]-N-(propan-2-yl)-5H-pyrrolo[2,3-b]pyrazine-7-carboxamide], the IC50 came to 1.1 nM under setting [1] and 128 nM under setting [2].

In the case of `C=CC(=O)N1CCN(c2cnc3[nH]cc(C(=O)NC(C)C)c3n2)[C@H](C2CC2)C1` [Example 309, 2-[(2R)-4-acryloyl-2-cyclopropylpiperazin-1-yl]-N-(propan-2-yl)-5H-pyrrolo[2,3-b]pyrazine-7-carboxamide], the 50% inhibitory concentration (IC50) under setting [1] came to 6.6 nM and the concentration for half-maximal inhibition (IC50) under setting [2] worked out at 814 nM.

For `C=CC(=O)N1CC2(C1)CN(c1cnc3[nH]cc(C(=O)NC(C)C)c3n1)C2` [Example 310, 2-(6-acryloyl-2,6-diazaspiro[3.3]hept-2-yl)-N-(propan-2-yl)-5H-pyrrolo[2,3-b]pyrazine-7-carboxamide], the 50% inhibitory concentration (IC50) by setting is: under setting [1], 117 nM; under setting [2], over 10000 nM.

In the case of `C=CC(=O)N1CCN(c2cnc3[nH]cc(C(=O)NC(C)C)c3n2)C[C@H]1CC` [Example 311, 2-[(3R)-4-acryloyl-3-ethylpiperazin-1-yl]-N-(propan-2-yl)-5H-pyrrolo[2,3-b]pyrazine-7-carboxamide], the IC50 is, setting by setting: under setting [1], 1.2 nM; under setting [2], 200 nM.

The values are drawn from patent US20250134869A1, “Pyrrolo[2,3-d]pyrimidinyl, Pyrrolo[2,3-b]pyrazinyl and Pyrrolo[2,3-d]pyridinyl Acryla-mides” (Pfizer Inc, priority 2021, published 2025).
